# Source: PMC4459817, “Vasculotide reduces endothelial permeability and tumor cell extravasation in the absence of binding to or agonistic activation of Tie2” (EMBO Molecular Medicine, 2015)
# B1: recombinant human Ang1 (rhAng1) (ligand, UniProt Q15389 16-498, looked up)
# chain: HIGCSNQRRSPENSGRRYNRIQHGQCAYTFILPEHDGNCRESTTDQYNTNALQRDAPHVEPDFSSQKLQHLEHVMENYTQWLQKLENYIVENMKSEMAQIQQNAVQNHTATMLEIGTSLLSQTAEQTRKLTDVETQVLNQTSRLEIQLLENSLSTYKLEKQLLQQTNEILKIHEKNSLLEHKILEMEGKHKEELDTLKEEKENLQGLVTRQTYIIQELEKQLNRATTNNSVLQKQQLELMDTVHNLVNLCTKEGVLLKGGKREEEKPFRDCADVYQAGFNKSGIYTIYINNMPEPKKVFCNMDVNGGGWTVIQHREDGSLDFQRGWKEYKMGFGNPSGEYWLGNEFIFAITSQRQYMLRIELMDWEGNRAYSQYDRFHIGNEKQNYRLYLKGHTGTAGKQSSLILHGADFSTKDADNDNCMCKCALMLTGGWWFDACGPSNLNGMFYTAGQNHGKLNGIKWHYFKGPSYSLRSTTMMIRPLDF
# notes: angiopoietin-1, human, recombinant; also called angiopoietin-1; source: bought: R&D Systems (named for the Boyden chamber experiments)
# Tests used:
# [1] = test system: human Tie2-Fc (extracellular domain of Tie2); test: pull-down assay, human Tie2-Fc; format: binding; conditions: human Tie2-Fc on protein A sepharose; rhAng1 20 ng or VT 100 ng, pH 7.4, 4°C; Fig9A,B
# From the text: To better understand the difficulties we had in observing Tie2 activation by VT, we sought to characterize the binding affinity and kinetics of VT to Tie2. Purified human or mouse Tie2-Fc (i.e., Fc-conjugated extracellular domains of Tie2) were first coupled to protein A sepharose beads for pull-down experiments (Fig9A and B) or immobilized on a Biacore CM5 sensor chip for surface plasmon resonance (SPR) experiments (Fig9C and Supplementary Fig S3).
# Figure 9 Binding of Vasculotide vs. Ang1 variants to the extracellular domain of Tie2 • A–B Pull-down assay. Input ligands—rhAng1 (A) and VT (B)—were incubated with either protein A sepharose beads only, bead-conjugated mouse Tie2-Fc (mTie2), or bead-conjugated human Tie2-Fc (hTie2). […] The ‘unbound’ fraction is 7% of residual/free ligands remaining in the supernatant. • C Quantitative kinetics analysis by SPR. All analytes were run at increasing concentrations of 0.625, 1.25, 2.5, 5, and 10 nM, at 37°C and pH 7.4. […] Source data are available online for this figure. […]
# Semi-quantitative densitometry analysis of immunoblots was performed using the ChemiGenius2 bioimaging system and GeneSnap/GeneTools software (Syngene). […]
# [2] = test system: dermal HMVECs; test: modified Boyden chamber, tumor cell-conditioned media (TC-CM) stimulated dextran permeability; format: cell-based, human; conditions: 20 ng/mL VT or 400 ng/mL Ang1 vs PBS; paired t-test, n = 11 experimental replicates; Fig4A
# Experimental: To investigate this possibility in vitro, we performed modified Boyden chamber assays where we stimulated ECs with tumor cell-conditioned media (TC-CM)—that is, supplement-reduced EC growth media containing all the cytokines naturally secreted by LM2-4^luc, SN12^luc, or HT29^luc cells over 30 hours of hypoxic incubation (1% O2).
# Meta-analyses of treatment effects on dextran permeability (A) and tumor cell migration (B), where each datapoint represents the mean of an independent experiment, averaged over 2–3 biological replicates (inserts) per treatment group and normalized internally within that same experiment.
# Endothelial cells (ECs) were grown on cell culture inserts with uncoated 8-μm-pore PET filter membranes to 100% confluency. See Supplementary Fig S4 for detailed timelines. […] Permeability assays: A total of 100 μg of FITC-dextran (Sigma FD-20S) was dispensed into the upper chamber media. After 30 min of thrombin stimulation or 4–6 h of TC-CM stimulation, FITC fluorescence (ex/em = 490/520 nm) was measured from a 50 μl sample of the lower chamber media. […] CMPTX fluorescence from migrated TCs was then quantified from 10× microscopy images using a MATLAB (MathWorks, Natick, MA, USA) script; five images (technical replicates) were analyzed per insert. […]
Molecule,pull-down by Tie2-Fc [1],transendothelial macromolecular (dextran) permeability in presence of TC-CM [2]
"CHHHRHSF [Vasculotide, 4-armed maleimide-functionalized polyethylene glycol (PEG) backbone to link together four cysteine-capped T7 peptides, that is, CHHHRHSF]",did not pull down any appreciable levels,reduced transendothelial macromolecular permeability (P < 0.05
B1,effectively pulled down the majority,reduced transendothelial macromolecular permeability (P < 0.05
